From ChEMBL document CHEMBL4387727, “Novel triazine-based pyrimidines suppress glomerular mesangial cells proliferation and matrix protein accumulation through a ROS-dependent mechanism in the diabetic milieu” (2019) come the findings set out here.

The source made the active and inactive calls. No cut-off for these calls is given here.

Common to all, as to format: functional
The nature of assay [1]: Nephroprotective activity in serum deprived rat Glomerular mesangial cells assessed as fibronectin protein expression in presence of 25 mM glucose at 0.5 uM after 48 hrs by Western blot analysis (reference value: 270.11 +/- 19.17%). (In general: In western blotting, separated proteins are transferred to a membrane and probed.)
A short description of assay [2]: Nephroprotective activity in serum deprived rat Glomerular mesangial cells assessed as fibronectin protein expression in presence of 25 mM glucose at 1 uM after 48 hrs by Western blot analysis (reference value: 270.11 +/- 19.17%).
A short description of assay [3]: Nephroprotective activity in serum deprived rat Glomerular mesangial cells assessed as fibronectin protein expression in presence of 25 mM glucose at 2.5 uM after 48 hrs by Western blot analysis (reference value: 270.11 +/- 19.17%).
Assay [4] is described as follows: Nephroprotective activity in serum deprived rat Glomerular mesangial cells assessed as fibronectin protein expression in presence of 25 mM glucose at 5 uM after 48 hrs by Western blot analysis (reference value: 270.11 +/- 19.17%).
Assay [5] in a line: Antioxidant activity in serum deprived rat Glomerular mesangial cells assessed as EOH level by measuring EOH/DHE level in presence of 25 mM glucose at 0.5 uM after 48 hrs by DHE based HPLC analysis (reference value: 654.98 +/- 32.31 nmol/micromol).
Assay [6] in a line: Antioxidant activity in serum deprived rat Glomerular mesangial cells assessed as EOH level by measuring EOH/DHE level in presence of 25 mM glucose at 1 uM after 48 hrs by DHE based HPLC analysis (reference value: 654.98 +/- 32.31 nmol/micromol).
The nature of assay [7]: Antioxidant activity in serum deprived rat Glomerular mesangial cells assessed as EOH level by measuring EOH/DHE level in presence of 25 mM glucose at 2.5 uM after 48 hrs by DHE based HPLC analysis (reference value: 654.98 +/- 32.31 nmol/micromol).
Assay [8] in a line: Antioxidant activity in serum deprived rat Glomerular mesangial cells assessed as EOH level by measuring EOH/DHE level in presence of 25 mM glucose at 5 uM after 48 hrs by DHE based HPLC analysis (reference value: 654.98 +/- 32.31 nmol/micromol).
The species named for assay [9] is Rattus norvegicus. Kind of assay: Antiproliferative activity against serum deprived rat Glomerular mesangial cells assessed as reduction in 25 mM glucose-induced cell proliferation at 0.5 uM after 48 hrs by MTT assay. On the technique in general: Tetrazolium dyes change colour on reduction, which living cells bring about.
Assay [10] is filed under the species Rattus norvegicus. As to the kind of experiment: Antiproliferative activity against serum deprived rat Glomerular mesangial cells assessed as reduction in 25 mM glucose-induced cell proliferation at 1 uM after 48 hrs by MTT assay.
The species named for assay [11] is Rattus norvegicus. Kind of assay: Antioxidant activity in serum deprived rat Glomerular mesangial cells assessed as reduction in NADPH oxidase dependent super oxide generation in presence of 25 mM glucose at 0.5 uM after 48 hrs by Lucigenin-enhanced chemiluminescence method.
For assay [12], the species on record is Rattus norvegicus. As to the kind of experiment: Antioxidant activity in serum deprived rat Glomerular mesangial cells assessed as reduction in NADPH oxidase dependent super oxide generation in presence of 25 mM glucose at 1 uM after 48 hrs by Lucigenin-enhanced chemiluminescence method.

For `NNC(=O)CCn1ccc(O)nc1=O`, the Activity amounted to 268.71% in assay [1]; 265.72% in assay [2]; 241.91% in [3]; 227.83% in [4]; 666.94 nmol/umol in [5]; 671.47 nmol/umol in assay [6]. Further, the Activity in [7] was 654.48 nmol/umol; in assay [8], 618.26 nmol/umol.

As for `Cc1cn(CCC(=O)NN)c(=O)nc1O`, the Activity in [1] was 289.17%; in assay [2], 272.26%; in assay [3], 251.59%; in assay [4] it was 239.46%; in [5] it was 701.09 nmol/umol; in assay [6], 658.92 nmol/umol. The Activity in assay [7] is recorded as 683.28 nmol/umol; in [8], 710.14 nmol/umol.

As to `Cc1cn(CCC(=O)NNc2nc(NNC(=O)CCn3ccc(=O)[nH]c3=O)nc(NNC(=O)CCn3ccc(=O)[nH]c3=O)n2)c(=O)[nH]c1=O`, the Activity stood at 178.33% in assay [1]; 145.64% in [2]; 143.41% in [3]; 151.18% in assay [4]; 454.37 nmol/umol in assay [5]; 306.28 nmol/umol in assay [6]. The Activity in assay [7] is listed as 231.15 nmol/umol; in assay [8], 217.62 nmol/umol. The result in the assay listed under Rattus norvegicus [9], in the assay listed under Rattus norvegicus [10], in the assay listed under Rattus norvegicus [11] and in the assay filed under Rattus norvegicus [12] was Active.

Take `Cc1cn(CCC(=O)NNc2nc(NNC(=O)CCn3cc(C)c(=O)[nH]c3=O)nc(NNC(=O)CCn3cc(C)c(=O)[nH]c3=O)n2)c(=O)[nH]c1=O`: the Activity in assay [1] amounted to 182.76%; in assay [2], 141.91%; in assay [3], 108.35%; in [4], 102.99%; in [5], 404.34 nmol/umol; in assay [6] it was 305.77 nmol/umol. Further, the Activity in assay [7] came out at 200.36 nmol/umol; in [8], 224.71 nmol/umol. Besides, the outcome in the assay listed under Rattus norvegicus [9], in the assay filed under Rattus norvegicus [10], in the assay listed under Rattus norvegicus [11] and in the assay filed under Rattus norvegicus [12] was Active.

As to `Cc1cn(CCC(=O)NNc2nc(NNC(=O)CCn3ccc(=O)[nH]c3=O)nc(NNC(=O)CCn3cc(C)c(=O)[nH]c3=O)n2)c(=O)[nH]c1=O`, the Activity in assay [1] is given as 114.54%; in [2] it was 135.87%; in assay [3], 127.09%; in [4], 121.34%; in assay [5] it was 323.17 nmol/umol; in [6] it was 257.69 nmol/umol. The Activity in assay [7] was found to be 249.97 nmol/umol; in [8], 240.46 nmol/umol. The result in the assay listed under Rattus norvegicus [9], in the assay listed under Rattus norvegicus [10], in the assay filed under Rattus norvegicus [11] and in the assay listed under Rattus norvegicus [12] was Active.

On to `Cc1cn(CCC(=O)NNc2nc(Cl)nc(NNC(=O)CCn3cc(C)c(=O)[nH]c3=O)n2)c(=O)[nH]c1=O`, for which the Activity in assay [1] was 231.19%; in assay [2], 200.79%; in [3], 189.91%; in assay [4], 170.26%; in assay [5], 651.54 nmol/umol; in assay [6], 671.14 nmol/umol. The Activity is 512.62 nmol/umol in assay [7] and 413.96 nmol/umol in assay [8].

For `O=C(CCn1ccc(=O)[nH]c1=O)NNc1nc(NNC(=O)CCn2ccc(=O)[nH]c2=O)nc(NNC(=O)CCn2ccc(=O)[nH]c2=O)n1`, the Activity in assay [1] is on record as 191.33%; in assay [2] it was 167.88%; in assay [3], 142.45%; in [4], 121.19%; in [5] it was 359.07 nmol/umol; in assay [6], 274.37 nmol/umol. In addition, the Activity in [7] worked out at 198.48 nmol/umol; in assay [8] it was 210.93 nmol/umol. The outcome in the assay filed under Rattus norvegicus [9], in the assay listed under Rattus norvegicus [10], in the assay filed under Rattus norvegicus [11] and in the assay listed under Rattus norvegicus [12] was Active.

Regarding `O=C(CCn1ccc(=O)[nH]c1=O)NNc1nc(Cl)nc(NNC(=O)CCn2ccc(=O)[nH]c2=O)n1`, the Activity in assay [1] was determined as 267.45%; in assay [2], 280.24%; in assay [3], 219.47%; in assay [4] it was 179.47%; in assay [5], 660.36 nmol/umol; in assay [6], 648.96 nmol/umol. For the same compound, the Activity in assay [7] came out at 661.09 nmol/umol; in assay [8], 672.32 nmol/umol.
